Here are results for 21 molecules from US6800465B2, “D-hydantoinase from Ochrobactrum anthropi” (priority 2001, dated 2004).

Series [1] has as its system hydantoinase. In words: Substrate specificity of purified recombinant hydantoinase. It counts as biochemical, Ochrobactrum anthropi. The following applies: purified recombinant enzyme from E. coli BL21, compound as substrate. How it is done: E. coli BL21 containing the hydantoinase gene was grown as described in example 4.2. The cells were centrifuged and washed with 100 mM carbonate buffer pH 9.0 and resuspended in the same buffer and ruptured by sonication. The enzyme was purified as described in example 2. The purified enzyme was tested for substrate specificity with various hydantoins as substrate.

The test system of series [2] is hydantoinase. In words: Metal ion requirements of purified hydantoinase. It counts as biochemical, Ochrobactrum anthropi. Also noted: Specific activity: unit not given here. The following applies: hydantoin as substrate, metal ion at 100 mM concentration. How it is done:
Purified hydantoinase was assayed with hydantoin with the addition of the various metal ions at 100 mM concentration.

Series [3] concerns hydantoinase. In words: Effect of glutaraldehyde and acetone treatment of whole cells on hydantoinase activity. The following applies: treated whole cells; 10 mg/ml D,L-p-hydroxyphenyl hydantoin, pH 8.5, 42° C., 4 hours; Control (buffer only) = 1. It counts as biochemical, Ochrobactrum anthropi. How it is done:
Washed cell suspension 0.5 ml aliquots of culture was treated with 0.5 ml glutaraldehyde (G.A.) final concentration 2% in phosphate buffer pH 7.0, or with 0.5 ml G.A. 2% in phosphate buffer and 1 ml acetone, or with 0.5 ml acetone alone at room temperature for 10 minutes. The treated cells were washed with 10 ml 0.9% saline and then with saline +1 mg/ml ammonium sulfate and resuspended in 1 ml 100 mM TAPS buffer pH 8.5. Resuspended cell suspensions were incubated with 10 mg/ml D,L-p-hydroxyphenyl hydantoin in 100 mM TAPS pH 8.5 (final volume 800 μl) at 42° C. for 4 hours. Reactions were terminated with 200 μl TCA 12% and assayed.

For series [4], the system named is hydantoinase. In words: Effect of substrate concentration on rate of conversion by glutaraldehyde treated cells. The format is biochemical, Ochrobactrum anthropi. Conditions: pH 8.8, 42° C.; for % Conversion: 6 hours.
Protocol: Incubations were in 200 mM TAPS pH 8.8, 42° C. for 6 hours, and pH adjustments were made back to normal at least every hour.
Series [5] can be described thus: Stability of enzyme at pH 8.8, 9.3 and 9.8. The following applies: then assayed at pH 8.8, 42° C. The format is biochemical, Ochrobactrum anthropi. How it is done: Glutaraldehyde treated cells from pH profile study were held at pH 8.8, 9.3 and 9.8 for about 4 hours. Solids were washed, resuspended in 25 mM TAPS pH 8.8 and 10 mg/ml D,L-p-hydroxyphenyl hydantoin and incubated at 42° C. for 4 hours. […] Optimum pH of activity at 8.8 in pH profile study was probably due to greater enzyme stability at pH 8.8 rather than pH 9.3 or 9.8.

Series [6] in a line: Specific activity of purified hydantoinase. The format is biochemical, Ochrobactrum anthropi. Conditions: active band eluant from preparative native gel. How it is done:
Active band eluant from preparative native gel was assayed and protein determined by Pierce Microtiter assay protocol using BSA standard. Specific activity was determined at greater than 4 IU per mg of protein.

Series [7] in a line: PI value of hydantoinase by IEF-PAGE. The format is physicochemical, Ochrobactrum anthropi. The following applies: IEF-PAGE gel, pH range of 3-9. How it is done: Active band eluant from preparative native gel was run on the Phast System IEF-PAGE gel with a pH range of 3-9 using low MW protein markers and the gel was silver stained. PI of active band protein was determined at approximately 4.5.

As to `O=C1CNC(=S)N1` [2-thio hydantoin], the “Specific activity” value in the series with hydantoinase [1] worked out at 4.3 IU/mg.

Consider `[Mg+2]` [Mg (II)], for which, in the series with hydantoinase [2], the Specific activity was found to be 5.2.

In the case of Hydroxymethyl 5,5-dimethyl hydantoin, in the series on hydantoinase [1], the “Specific activity” value was 5.6 IU/mg.

Consider `CC(C)=O` [Acetone, acetone], for which the “Relative Activity” value with hydantoinase [3] is on record as 2.8.

For `[Fe+2]` [Fe (II)], in the series with hydantoinase [2], the Specific activity is listed as 9.3 and the “effect on the activity of the enzyme” value is on record as “stimulate the activity”.

`[Zn+2]` [Zn (II)] displayed a Specific activity in the series on hydantoinase [2] of 1.8.

The molecule `[Ca+2]` [Ca (II)] came in with a Specific activity in the series on hydantoinase [2] of 3.6.

For `O=C1NC(=O)C(c2ccc(O)cc2)N1` (racemic) [D,L-p-hydroxyphenyl hydantoin], the product formed was 1.9 mg/mL in the series on hydantoinase [4] (substrate 5 mg/ml, 2¾ hr); “.56 mg/mL” in the series with hydantoinase [4] (substrate 5 mg/ml, 30 min); 1.0 mg/mL in the series with hydantoinase [4] (substrate 5 mg/ml, 60 min); 2.1 mg/mL in the series on hydantoinase [4] (substrate 5 mg/ml, 4 hr); 2.2 mg/mL in the series with hydantoinase [4] (substrate 5 mg/ml, 6 hr); 3.4 mg/mL with hydantoinase [4] (substrate 10 mg/ml, 2¾ hr). Further, the product formed result with hydantoinase [4] (substrate 10 mg/ml, 30 min) is “.75 mg/mL”; in the series with hydantoinase [4] (substrate 10 mg/ml, 60 min) it was 1.4 mg/mL; in the series on hydantoinase [4] (substrate 10 mg/ml, 4 hr), 4.0 mg/mL; in the series on hydantoinase [4] (substrate 10 mg/ml, 6 hr), 4.4 mg/mL; in the series with hydantoinase [4] (substrate 20 mg/ml, 2¾ hr), 4.0 mg/mL; with hydantoinase [4] (substrate 20 mg/ml, 30 min), “.82 mg/mL”. The product formed in the series with hydantoinase [4] (substrate 20 mg/ml, 60 min) is 1.5 mg/mL; with hydantoinase [4] (substrate 20 mg/ml, 4 hr), 6.2 mg/mL; with hydantoinase [4] (substrate 20 mg/ml, 6 hr), 7.7 mg/mL; in the series on hydantoinase [4] (substrate 50 mg/ml, 2¾ hr), 4.2 mg/mL; with hydantoinase [4] (substrate 50 mg/ml, 30 min), “.95 mg/mL”; in the series on hydantoinase [4] (substrate 50 mg/ml, 60 min) it was 1.6 mg/mL. The product formed was 6.3 mg/mL in the series on hydantoinase [4] (substrate 50 mg/ml, 4 hr) and 9.2 mg/mL with hydantoinase [4] (substrate 50 mg/ml, 6 hr). The “% Conversion” value in the series on hydantoinase [4] (substrate 5 mg/ml) stood at 40%; in the series with hydantoinase [4] (substrate 10 mg/ml), 40%; in the series on hydantoinase [4] (substrate 20 mg/ml), 35%; with hydantoinase [4] (substrate 50 mg/ml), 17%.

Consider `CC1NC(=O)NC1=O` (centres unmarked) [5-methyl hydantoin], for which, in the series with hydantoinase [1], the “Specific activity” value is reported as 10.6 IU/mg.

For the molecule p-hydroxymethyl hydantoin, in the series with hydantoinase [1], the “Specific activity” value is listed as 1.9 IU/mg.

Regarding `[Co+2]` [Co (II)], in the series with hydantoinase [2], the Specific activity came out at 3.6.

Consider `O=C(O)CC1NC(=O)NC1=O` (centres unmarked) [D,L hydantoin 5-acetic acid], for which the “Specific activity” value in the series on hydantoinase [1] is recorded as 1.8 IU/mg.

For `O=CCCCC=O` [Glutaraldehyde, glutaraldehyde], the “Relative Activity” value with hydantoinase [3] stood at 1.2.

As to `O=C1CNC(=O)N1` [Hydantoin], the “Specific activity” value with hydantoinase [1] was 7.5 IU/mg.

`O=C(O)CN(CCN(CC(=O)O)CC(=O)O)CC(=O)O` [None (EDTA)] showed a Specific activity in the series with hydantoinase [2] of 4.8.

In the series on hydantoinase [2], `[Ni+2]` [Ni (II)] registered a Specific activity of 3.6.

For the molecule `[Cu+2]` [Cu (II)], the Specific activity in the series with hydantoinase [2] was found to be 1.2.

For the molecule `[Mn+2]` [Mn (II)], in the series on hydantoinase [2], the Specific activity was 7.1 and the “effect on the activity of the enzyme” value was “stimulate the activity”.

Molecule `[Fe+3]` [Fe (III)] came in with a Specific activity in the series with hydantoinase [2] of 3.8.

In the case of `O=c1cc[nH]c(=O)[nH]1` [Uracil], the “Specific activity” value in the series with hydantoinase [1] is given as 1.8 IU/mg.

B1: hydantoinase: D-hydantoinase from Ochrobactrum anthropi, SEQ ID NO: 2; in Table 3 assayed in glutaraldehyde treated cells (protein, listed as Ochrobactrum anthropi)
chain: MAKVIKGGTVITADRTFKADVLIEGEKIVAVGDNLSGDEVIDASGCYIMPGGIDPHTHLQMPFMGTYSSDDFDTGTAAALAGGTTMVVDFVLPGSEGNLLEALQEWFQKAGKARTDYSFHMAITGWNERTFNEMAEVVKRGINTFKHFMAYKGALMVNDDEMFASFQRCAELGAMPLVHAENGDIVAQLQAKLMAEGNDGPEAHAYSRPPEVEGEATNRAIMIADQAGVPLYVVHVSCEQSHEAIRRARQKGMRVFGEPLIQHLTLDESEYHNRDWDYAARRVMSPPFRDKANQDSLWAGLAAGSLQCVATDHCAFTTEQKRYGIGNFTKIPNGTGGLEERMPVLWSRGVRTGRLTPNEFVAVTSTNIAKILNIYPQKGAVLPGADADLVIWDPEATRKVSAKTQHSSIDYNVFEGFELKGLPKMTLSRGRVAFDKGNVTAEPGDGRFIEREPNGAVNRALSQWKEIVAPRKVERSAEHMPIGV
B1: the entries for the “Relative Activities” value in series [5] (held at pH 8.8 for about 4 hours), in series [5] (held at pH 9.3 for about 4 hours) and in series [5] (held at pH 9.8 for about 4 hours) were 1.75, 1.17 and 0.62, respectively. In series [6], the Specific activity result was “greater than 4 IU per mg of protein”. Moreover, the PI result in series [7] was “approximately 4.5”.
